{"source": "paper PMC4067149", "about": "(Biochemistry, 2014)", "biological_target": "T1, DEBS AT3 (Saccharopolyspora erythraea, UniProt Q03132)", "T1 sequence (Q03132 460-880 limits assumed)": "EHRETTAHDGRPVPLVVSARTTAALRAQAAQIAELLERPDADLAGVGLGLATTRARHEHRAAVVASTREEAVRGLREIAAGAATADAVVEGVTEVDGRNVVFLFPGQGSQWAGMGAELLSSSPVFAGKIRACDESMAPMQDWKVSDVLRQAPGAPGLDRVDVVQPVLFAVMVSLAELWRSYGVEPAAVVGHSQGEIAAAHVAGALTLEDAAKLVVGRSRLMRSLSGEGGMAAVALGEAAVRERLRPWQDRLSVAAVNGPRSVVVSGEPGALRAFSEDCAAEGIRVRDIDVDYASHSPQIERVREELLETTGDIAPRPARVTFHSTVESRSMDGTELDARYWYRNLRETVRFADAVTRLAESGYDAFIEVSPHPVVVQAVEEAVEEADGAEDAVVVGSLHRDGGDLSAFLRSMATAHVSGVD", "test": "alpha-KGDH coupled fluorometric NADH assay, hydrolysis", "assay_type": "biochemical", "details": "no ACP, pH 7.6, 10% glycerol"}
{"compound": "CC(C(=O)O)C(=O)SCCNC(=O)CCNC(=O)[C@H](O)C(C)(C)COP(=O)(O)OP(=O)(O)OC[C@H]1O[C@@H](n2cnc3c(N)ncnc32)[C@H](O)[C@@H]1OP(=O)(O)O", "note": "(stereo partly shown) [MMCoA, methylmalonyl-CoA]", "values": [{"measurement": "alpha-KGDH coupled fluorometric NADH assay, hydrolysis", "result": "DEBS AT3 showed the highest rate of hydrolysis with its natural substrate, methylmalonyl-CoA"}]}
